# Measurements from patent US8530493B2, “Indolopyridines as Eg5 kinesin modulators” (4SC AG, priority 2006, dated 2013).
# System: RKO p21 uninduced (proliferating) colon adenocarcinoma cells
# Assay: Alamar Blue cell viability assay, RKO p21 uninduced (proliferating)
# Assay type: cell-based
# Conditions: Homo sapiens, Table B3, anti-proliferative/cytotoxic activity, 72 hours, read-out: −log EC50 RKO p21 uninduced (proliferating) (converted)
# Method in brief: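 RKO p21 or p27 subclones grown without Ponasterone A, i.e. proliferating, exposed 24 h after seeding to semi-log compound dilutions in DMEM/10% FCS (1% DMSO controls) for 72 h at 37° C. Alamar Blue fluorescence (544/590 nm) read relative to untreated cells; EC50 from dose-response curves, given as −log EC50 (mol/l).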
row,SMILES,EC50 [µM]
1,"CCOc1ccc2[nH]c3c(c2c1)C[C@@]1(C)C(=O)N(CCCN2CCCCC2)C(=O)N1[C@@H]3c1cccc(O)c1 (racemic) [Example 223, (3aSR,10RS)-6-Ethoxy-10-(3-hydroxy-phenyl)-3a-methyl-2-(3-piperidin-1-yl-propyl)-3a,4,9,10-tetrahydro-2,9,10a-triaza-cyclopenta[b]fluorene-1,3-dione]",0.0398 to 0.251
2,"CCN(CCOC)CCN1C(=O)N2[C@H](c3cccc(O)c3)c3[nH]c4cc(F)c(OC)cc4c3C[C@@]2(C)C1=O (racemic) [Example 454, (3aSR,10RS)-2-{2-[Ethyl-(2-methoxy-ethyl)-amino]-ethyl}-7-fluoro-10-(3-hydroxy-phenyl)-6-methoxy-3a-methyl-3a,4,9,10-tetrahydro-2,9,10a-triaza-cyclopenta[b]fluorene-1,3-dione]",0.0398 to 0.251
3,"CC(C)NCCN1C(=O)N2[C@H](c3cccc(O)c3)c3[nH]c4cc(F)c(Cl)cc4c3C[C@@]2(C)C1=O (racemic) [Example 339, (3aSR,10RS)-6-Chloro-7-fluoro-10-(3-hydroxy-phenyl)-2-(2-isopropylamino-ethyl)-3a-methyl-3a,4,9,10-tetrahydro-2,9,10a-triaza-cyclopenta[b]fluorene-1,3-dione]",≤ 0.0398
4,"CCOc1ccc2[nH]c3c(c2c1)C[C@@]1(C)C(=O)N(CCN2CCC(C)CC2)C(=O)N1[C@@H]3c1cccc(O)c1 (racemic) [Example 302, (3aSR,10RS)-6-Ethoxy-10-(3-hydroxy-phenyl)-3a-methyl-2-[2-(4-methyl-piperidin-1-yl)-ethyl]-3a,4,9,10-tetrahydro-2,9,10a-triaza-cyclopenta[b]fluorene-1,3-dione]",0.0398 to 0.251
5,"CCOc1ccc2[nH]c3c(c2c1)C[C@@]1(C)C(=O)N(CCCNCCOC)C(=O)N1[C@@H]3c1cccc(O)c1 (racemic) [Example 189, (3aSR,10RS)-6-Ethoxy-10-(3-hydroyx-phenyl)-2-[3-(2-methoxy-ethylamino)-propyl]-3a-methyl-3a,4,9,10-tetrahydro-2,9,10a-triaza-cyclopenta[b]fluorene-1,3-dione]",0.0398 to 0.251
6,"CN(CCO)CCCN1C(=O)N2[C@H](c3cccc(O)c3)c3[nH]c4ccc(OC(F)F)cc4c3C[C@@]2(C)C1=O (racemic) [Example 453, (3aSR,10RS)-6-(1,1-Difluoro-methoxy)-2-{3-[(2-hydroxy-ethyl)-methyl-amino]-propyl}-10-(3-hydroxy-phenyl)-3a-methyl-3a,4,9,10-tetrahydro-2,9,10a-triaza-cyclopenta[b]fluorene-1,3-dione]",≤ 0.0398
7,"C[C@@]12Cc3c([nH]c4ccc(Cl)cc34)[C@@H](c3cccc(O)c3)N1C(=O)N(CCCN1CC=CCC1)C2=O (racemic) [Example 174, (3aSR,10RS)-6-Chloro-2-[3-(3,6-dihydro-2H-pyridin-1-yl)-propyl]-10-(3-hydroxy-phenyl)-3a-methyl-3a,4,9,10-tetrahydro-2,9,10a-triaza-cyclopenta[b]fluorene-1,3-dione]",≤ 0.0398
8,"COc1cc2c3c([nH]c2cc1F)[C@@H](c1cccc(O)c1)N1C(=O)N(CCN2CCC(C)CC2)C(=O)[C@]1(C)C3 (racemic) [Example 264, (3aSR,10RS)-7-Fluoro-10-(3-hydroxy-phenyl)-6-methoxy-3a-methyl-2-[2-(4-methyl-piperidin-1-yl)-ethyl]-3a,4,9,10-tetrahydro-2,9,10a-triaza-cyclopenta[b]fluorene-1,3-dione]",0.0398 to 0.251
9,"CCN(C)CCN1C(=O)N2[C@H](c3cccc(O)c3)c3[nH]c4cc(F)c(Cl)cc4c3C[C@@]2(C)C1=O (racemic) [Example 347, (3aSR,10RS)-6-Chloro-2-[2-(ethyl-methyl-amino)-ethyl]-7-fluoro-10-(3-hydroxy-phenyl)-3a-methyl-3a,4,9,10-tetrahydro-2,9,10a-triaza-cyclopenta[b]fluorene-1,3-dione]",≤ 0.0398
